ChEMBL document CHEMBL1146720, “Bicyclic anti-VZV nucleosides: thieno analogues bearing an alkylphenyl side chain have reduced antiviral activity” (Bioorg Med Chem Lett, 2004)

Columns and labels:
[1] = tested on: HEL (human embryonic lung); assay: Minimal cytotoxic concentration, required to alter microscopically detectable cell morphology
Human alphaherpesvirus 3 [2] = assay: Antiviral activity against Varicella-Zoster virus (YS); type: functional, organism-based
Human alphaherpesvirus 3 [3] = assay: Antiviral activity against Varicella-Zoster virus (OKA); type: functional, organism-based
Human alphaherpesvirus 3 [4] = assay: Antiviral activity against Varicella-Zoster virus (thymidine kinase deficient) TK-(07/1); type: functional, organism-based
[5] = tested on: HEL (human embryonic lung); assay: Cytotoxic concentration required to inhibit Hel cell growth

## CCCCCCCc1ccc(-c2cc3cn([C@H]4C[C@H](O)[C@@H](CO)O4)c(=O)nc3s2)cc1
[1]
  MCC: 50 µM
Human alphaherpesvirus 3 [2]
  EC50: 180 nM
Human alphaherpesvirus 3 [3]
  EC50: 270 nM
Human alphaherpesvirus 3 [4]
  EC50: > 20000 nM
[5]
  CC50: > 200000 nM

## CCc1ccc(-c2cc3cn([C@H]4C[C@H](O)[C@@H](CO)O4)c(=O)nc3s2)cc1
[1]
  MCC: > 200 µM
Human alphaherpesvirus 3 [2]
  EC50: 150 nM
Human alphaherpesvirus 3 [3]
  EC50: 200 nM
Human alphaherpesvirus 3 [4]
  EC50: 20000 nM
[5]
  CC50: > 200000 nM

## CCCc1ccc(-c2cc3cn([C@H]4C[C@H](O)[C@@H](CO)O4)c(=O)nc3s2)cc1
[1]
  MCC: 80 µM
Human alphaherpesvirus 3 [2]
  EC50: 60 nM
Human alphaherpesvirus 3 [3]
  EC50: 90 nM
Human alphaherpesvirus 3 [4]
  EC50: > 16000 nM
[5]
  CC50: > 200000 nM

## CCCCCc1ccc(-c2cc3cn([C@H]4C[C@H](O)[C@@H](CO)O4)c(=O)nc3s2)cc1
[1]
  MCC: 50 µM
Human alphaherpesvirus 3 [2]
  EC50: 14 nM
Human alphaherpesvirus 3 [3]
  EC50: 25 nM
Human alphaherpesvirus 3 [4]
  EC50: 20000 nM
[5]
  CC50: > 200000 nM

## CCCCCCCCc1ccc(-c2cc3cn([C@H]4C[C@H](O)[C@@H](CO)O4)c(=O)nc3s2)cc1
[1]
  MCC: ≥ 20 µM
Human alphaherpesvirus 3 [2]
  EC50: 3400 nM
Human alphaherpesvirus 3 [4]
  EC50: > 20000 nM
[5]
  CC50: > 200000 nM

## CCCCCCCCc1cc2cn([C@H]3C[C@H](O)[C@@H](CO)O3)c(=O)nc2s1
[1]
  MCC: 20 µM
Human alphaherpesvirus 3 [2]
  EC50: 5 nM
Human alphaherpesvirus 3 [3]
  EC50: 2 nM
Human alphaherpesvirus 3 [4]
  EC50: > 5000 nM
[5]
  CC50: 53000 nM

## CCCCCCc1ccc(-c2cc3cn([C@H]4C[C@H](O)[C@@H](CO)O4)c(=O)nc3s2)cc1
[1]
  MCC: 200 µM
Human alphaherpesvirus 3 [2]
  EC50: 43 nM
Human alphaherpesvirus 3 [3]
  EC50: 80 nM
Human alphaherpesvirus 3 [4]
  EC50: > 50000 nM
[5]
  CC50: > 200000 nM

## CCCCc1ccc(-c2cc3cn([C@H]4C[C@H](O)[C@@H](CO)O4)c(=O)nc3s2)cc1
[1]
  MCC: 50 µM
Human alphaherpesvirus 3 [2]
  EC50: 20 nM
Human alphaherpesvirus 3 [3]
  EC50: 28 nM
Human alphaherpesvirus 3 [4]
  EC50: > 3200 nM
[5]
  CC50: > 200000 nM

## Nc1nc2c(ncn2COCCO)c(=O)[nH]1 [ACYCLOVIR]
[1]
  MCC: > 200 µM
Human alphaherpesvirus 3 [3]
  EC50: 1100 nM
Human alphaherpesvirus 3 [4]
  EC50: 40000 nM
[5]
  CC50: > 400000 nM
